Laboratory results published in patent publication US5364844A, “Renin-inhibitory oligopeptides, their preparation and use” (Sankyo Company, Limited, priority 1988, dated 1994).

Biological target: T1, human renin (Homo sapiens, UniProt P00797)
T1 sequence (P00797 67-406): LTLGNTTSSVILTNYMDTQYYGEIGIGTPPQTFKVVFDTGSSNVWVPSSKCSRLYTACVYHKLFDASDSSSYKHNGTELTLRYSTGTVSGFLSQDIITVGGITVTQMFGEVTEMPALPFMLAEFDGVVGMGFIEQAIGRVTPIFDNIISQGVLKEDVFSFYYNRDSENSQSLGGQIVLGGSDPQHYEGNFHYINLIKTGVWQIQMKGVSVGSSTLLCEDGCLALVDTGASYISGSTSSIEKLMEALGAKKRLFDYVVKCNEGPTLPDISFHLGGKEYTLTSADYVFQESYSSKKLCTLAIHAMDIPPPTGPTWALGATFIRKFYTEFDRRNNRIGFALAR
Assay: Inhibition of human renin activity (procedure of Kokubu et al.)
Format: biochemical
Conditions: sheep angiotensinogen, pH 7.3, 10 minutes at 37° C.; mean of 3 or 4 experiments
Method: The ability of various compounds of the invention to inhibit the activity of renin was determined according to the following method, which follows essentially the procedure of Kokubu et al. [Hypertension, 5, 191-197 (1983)].
Specifically, each test compound was dissolved in 60% v/v aqueous ethanol. Human renin activity in the presence and absence of each compound was measured using sheep angiotensinogen. The total volume of 1 ml of assay mixture contained 0.1 mole/liter phosphate buffer (pH 7.3), human renin (equivalent to 0.5 ng angiotensin I per ml per minute), sheep angiotensinogen (equivalent to 200 ng angiotensin I), […], 6% v/v ethanol and angiotensinase inhibitors (10 mmole/liter sodium ethylenediaminetetraacetate and 3.4 mmole/liter 8-hydroxyquinoline). The mixture was allowed to react for 10 minutes at 37° C., and then the reaction was stopped by placing the reaction tube in a boiling water bath for 5 minutes. The mixture was then centrifuged and the supernatant (0.05-0.1 ml) was used to assay remaining angiotensin I.
An identical experiment was carried out, as a control, except that the test compound was omitted. From the values obtained were calculated the % inhibition of renin activity achieved by each test compound. The results are shown in the following Table 9, in which the compounds of the invention are identified by the numbers of the Examples given hereafter in which are described their preparation. The values given are the mean of 3 or 4 experiments.

For `CC[C@H](C)CNC(=O)[C@@H](C[C@H](O)[C@H](CC1CCCCC1)NC(=O)[C@H](Cc1cscn1)NC(=O)[C@H](Cc1ccccc1)NC(=O)CN1CCOCC1)C(C)(C)O` [Example 3, (2S, 4S, 5S)-S-{N-[N-Morpholinoacetyl-L-phenylalanyl]-3-(4-thiazolyl)-L-alanyl}amino-6-cyclohexyl-4-hydroxy-2-(1-hydroxy-1-methylethyl)-N-[2(S)-methylbutyl]hexanamide], the “Inhibitory Activity (%) Against Human Renin” value was 96.7%.

In the case of `CC[C@H](C)CNC(=O)[C@@H](C[C@H](O)[C@H](CC1CCCCC1)NC(=O)[C@H](Cc1cscn1)NC(=O)[C@@H](CC(=O)N1CCOCC1)Cc1ccccc1)C(C)(C)O` [Example 5, (2S, 4S, 5S)-5-{N-[2(R)-Benzyl-3-(morpholinocarbonyl)propionyl]-3-(4-thiazolyl)-L-alanyl}amino-6-cyclohexyl-4-hydroxy-2-(1-hydroxy-1-methylethyl)-N-[2 (S)-methylbutyl]hexanamide], the “Inhibitory Activity (%) Against Human Renin” value is reported as 92.2%.

With `CC[C@H](C)CNC(=O)[C@@H](C[C@H](O)[C@H](CC1CCCCC1)NC(=O)[C@H](Cc1cscn1)NC(=O)[C@H](Cc1cccc2ccccc12)NC(=O)CN1CCOCC1)C(C)(C)O` [Example 2, (2S, 4S, 5S)-5-{N-[N-Morpholinoacetyl-3-(1-naphthyl)-L-alanyl]-3-(4-thiazolyl)-L-alanyl}amino-6-cyclohexyl-4-hydroxy-2-(1-hydroxy-1-methylethyl)-N-[2(S)-methylbutyl]hexanamide] the “Inhibitory Activity (%) Against Human Renin” value was 96.3%.

`CNC(=O)[C@@H](C[C@H](O)[C@H](CC1CCCCC1)NC(=O)[C@H](Cc1cscn1)NC(=O)[C@@H](CC(=O)N1CCOCC1)Cc1ccccc1)C(C)(C)O` [Example 9] was tested, and the “Inhibitory Activity (%) Against Human Renin” value was 90.9%.

In the case of `CCC(C)CNC(=O)[C@@H](C[C@H](O)[C@H](CC(C)C)NC(=O)[C@H](Cc1cscn1)NC(=O)[C@H](Cc1cccc2ccccc12)NC(=O)OC(C)(C)C)C(C)(C)O` (mixture of isomers) [Example 7, (2S, 4S, 5S)-5-{N-[N-(t-Butoxycarbonyl)-3-(1-naphthyl)-L-alanyl]-3-(4-thiazolyl)-L-alanyl}amino-4-hydroxy-2-(1-hydroxy-1-methylethyl)-7-methyl-N-[2(RS)-methylbutyl]octanamide], the “Inhibitory Activity (%) Against Human Renin” value is reported as 98.2%.

In the case of `CCC(C)CNC(=O)[C@@H](C[C@H](O)[C@H](CC(C)C)NC(=O)[C@H](Cc1cscn1)NC(=O)[C@@H](CC(=O)N(C)C1CCCCC1)Cc1cccc2ccccc12)C(C)(C)O` (mixture of isomers) [Example 8, (2S, 4S, 5S)-5-{N-[2(R)-(1-Naphthylmethyl)-3-(N-cyclohexyl-N-methylaminocarbonyl)propionyl]-3-(4-thiazolyl)-L-alanyl}amino-4-hydroxy-2-(1-hydroxy-1-methylethyl)-7-methyl-N-[2-(RS)-methylbutyl]octanamide], the “Inhibitory Activity (%) Against Human Renin” value is reported as 97.4%.

For `CC[C@H](C)CNC(=O)[C@@H](C[C@H](O)[C@H](CC1CCCCC1)NC(=O)[C@H](Cc1cscn1)NC(=O)[C@@H](CC(=O)N1CCOCC1)Cc1cccc2ccccc12)C(C)(C)O` [Example 4, (2S, 4S, 5S)-5-{N-[2(R)-(1-Naphthylmethyl)-3-(morpholinocarbonyl)propionyl]-3-(4-thiazolyl)-L-alanyl}amino-6-cyclohexyl-4-hydroxy-2-(1-hydroxy-1-methylethyl)-N-[2(S)-methylbutyl]hexanamide], the “Inhibitory Activity (%) Against Human Renin” value was 96.8%.
